# Results taken from US7723295B2, “Peptides and compounds that bind to a receptor” (Ortho-McNeil Pharmaceutical, Inc., priority 2003, dated 2010).
# Assays:
# human TPO receptor = molecular target: T1, human TPO receptor (Homo sapiens, UniProt P40238); test: relative luminescent units assay, murine cells expressing human TPO receptor and fos-promoter luciferase reporter; format: cell-based; details: FIG. 1; three batches of TPO Compound No. 1 vs one batch of prior art peptide compound
# T1 construct: expressed in transfected cells
# T1 sequence (P40238 26-635): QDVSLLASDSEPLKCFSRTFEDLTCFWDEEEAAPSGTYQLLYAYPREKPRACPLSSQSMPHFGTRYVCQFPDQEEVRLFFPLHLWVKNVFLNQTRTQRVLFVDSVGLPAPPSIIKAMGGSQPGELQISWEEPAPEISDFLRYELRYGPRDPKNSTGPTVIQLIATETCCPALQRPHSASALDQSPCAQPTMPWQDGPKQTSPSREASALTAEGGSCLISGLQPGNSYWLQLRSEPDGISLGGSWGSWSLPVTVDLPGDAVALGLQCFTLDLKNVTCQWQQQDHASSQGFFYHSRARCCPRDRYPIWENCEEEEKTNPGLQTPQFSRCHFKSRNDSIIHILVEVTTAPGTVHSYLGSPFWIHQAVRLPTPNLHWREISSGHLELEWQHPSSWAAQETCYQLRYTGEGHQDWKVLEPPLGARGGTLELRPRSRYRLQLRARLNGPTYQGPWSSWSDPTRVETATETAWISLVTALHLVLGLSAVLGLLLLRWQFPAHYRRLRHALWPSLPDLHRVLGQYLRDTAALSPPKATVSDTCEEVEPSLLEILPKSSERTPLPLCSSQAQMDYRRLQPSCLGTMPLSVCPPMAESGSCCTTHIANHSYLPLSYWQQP
# Source text: The assay employs murine cells engineered to stably express the human TPO receptor and a luciferase reporter construct driven by the fos promoter.
# platelet counts = test: Phase I pharmacodynamics, elevation in platelet counts; format: in vivo, human; details: for n (>1.5×), subjects with platelet increase / n (>2×), subjects with platelet increase / n (>3×), subjects with platelet increase / n (>4×), subjects with platelet increase: N=6
substance,measurement,setting,value
(H-IEGPTLRQ(2-Nal)LAAR(Sar))2K-NH2 [TPO Compound No. 1],"activity (relative luminescent units), compared between compounds",human TPO receptor,similar
same,"Pltmax, first value (mean peak platelet count)",platelet counts; 0.375 μg/kg single i.v.,315 10^9/L
same,"Pltmax, range in brackets",platelet counts; 0.375 μg/kg single i.v.,(214-482) 10^9/L
same,"Pltmax, second value after the slash (footnote not given)",platelet counts; 0.375 μg/kg single i.v.,309 10^9/L
same,"Pltmax/Plt0, first value (mean)",platelet counts; 0.375 μg/kg single i.v.,1.42/1.42
same,"Pltmax/Plt0, range in brackets",platelet counts; 0.375 μg/kg single i.v.,(1.08-1.81)
same,"Pltmax/Plt0, second value after the slash (footnote not given)",platelet counts; 0.375 μg/kg single i.v.,1.42/1.42
same,"n (>1.5×), subjects with platelet increase",platelet counts; 0.375 μg/kg single i.v.,3
same,"n (>2×), subjects with platelet increase",platelet counts; 0.375 μg/kg single i.v.,0
same,"n (>3×), subjects with platelet increase",platelet counts; 0.375 μg/kg single i.v.,0
same,"n (>4×), subjects with platelet increase",platelet counts; 0.375 μg/kg single i.v.,0
same,"Pltmax, first value (mean peak platelet count)",platelet counts; 0.75 μg/kg single i.v.,347 10^9/L
same,"Pltmax, range in brackets",platelet counts; 0.75 μg/kg single i.v.,(232-495) 10^9/L
same,"Pltmax, second value after the slash (footnote not given)",platelet counts; 0.75 μg/kg single i.v.,335 10^9/L
same,"Pltmax/Plt0, first value (mean)",platelet counts; 0.75 μg/kg single i.v.,1.63/1.63
same,"Pltmax/Plt0, range in brackets",platelet counts; 0.75 μg/kg single i.v.,(1.15-2.12)
same,"Pltmax/Plt0, second value after the slash (footnote not given)",platelet counts; 0.75 μg/kg single i.v.,1.63/1.63
same,"n (>1.5×), subjects with platelet increase",platelet counts; 0.75 μg/kg single i.v.,3
same,"n (>2×), subjects with platelet increase",platelet counts; 0.75 μg/kg single i.v.,1
same,"n (>3×), subjects with platelet increase",platelet counts; 0.75 μg/kg single i.v.,0
same,"n (>4×), subjects with platelet increase",platelet counts; 0.75 μg/kg single i.v.,0
same,"Pltmax, first value (mean peak platelet count)",platelet counts; 1.5 μg/kg single i.v.,430 10^9/L
same,"Pltmax, range in brackets",platelet counts; 1.5 μg/kg single i.v.,(238-597) 10^9/L
same,"Pltmax, second value after the slash (footnote not given)",platelet counts; 1.5 μg/kg single i.v.,458 10^9/L
same,"Pltmax/Plt0, first value (mean)",platelet counts; 1.5 μg/kg single i.v.,1.91
same,"Pltmax/Plt0, range in brackets",platelet counts; 1.5 μg/kg single i.v.,(1.01-2.59)
same,"Pltmax/Plt0, second value after the slash (footnote not given)",platelet counts; 1.5 μg/kg single i.v.,2.13
same,"n (>1.5×), subjects with platelet increase",platelet counts; 1.5 μg/kg single i.v.,4
same,"n (>2×), subjects with platelet increase",platelet counts; 1.5 μg/kg single i.v.,3
same,"n (>3×), subjects with platelet increase",platelet counts; 1.5 μg/kg single i.v.,0
same,"n (>4×), subjects with platelet increase",platelet counts; 1.5 μg/kg single i.v.,0
same,"Pltmax, first value (mean peak platelet count)",platelet counts; 2.25 μg/kg single i.v.,454 10^9/L
same,"Pltmax, range in brackets",platelet counts; 2.25 μg/kg single i.v.,(254-576) 10^9/L
same,"Pltmax, second value after the slash (footnote not given)",platelet counts; 2.25 μg/kg single i.v.,500 10^9/L
same,"Pltmax/Plt0, first value (mean)",platelet counts; 2.25 μg/kg single i.v.,2.15
same,"Pltmax/Plt0, range in brackets",platelet counts; 2.25 μg/kg single i.v.,(1.28-2.98)
same,"Pltmax/Plt0, second value after the slash (footnote not given)",platelet counts; 2.25 μg/kg single i.v.,2.33
same,"n (>1.5×), subjects with platelet increase",platelet counts; 2.25 μg/kg single i.v.,4
same,"n (>2×), subjects with platelet increase",platelet counts; 2.25 μg/kg single i.v.,4
same,"n (>3×), subjects with platelet increase",platelet counts; 2.25 μg/kg single i.v.,0
same,"n (>4×), subjects with platelet increase",platelet counts; 2.25 μg/kg single i.v.,0
same,"Pltmax, first value (mean peak platelet count)",platelet counts; 3.0 μg/kg single i.v.,685 10^9/L
same,"Pltmax, range in brackets",platelet counts; 3.0 μg/kg single i.v.,(188-979) 10^9/L
same,"Pltmax, second value after the slash (footnote not given)",platelet counts; 3.0 μg/kg single i.v.,750 10^9/L
same,"Pltmax/Plt0, first value (mean)",platelet counts; 3.0 μg/kg single i.v.,3.21
same,"Pltmax/Plt0, range in brackets",platelet counts; 3.0 μg/kg single i.v.,(1.25-4.52)
same,"Pltmax/Plt0, second value after the slash (footnote not given)",platelet counts; 3.0 μg/kg single i.v.,3.50
same,"n (>1.5×), subjects with platelet increase",platelet counts; 3.0 μg/kg single i.v.,5
same,"n (>2×), subjects with platelet increase",platelet counts; 3.0 μg/kg single i.v.,5
same,"n (>3×), subjects with platelet increase",platelet counts; 3.0 μg/kg single i.v.,4
same,"n (>4×), subjects with platelet increase",platelet counts; 3.0 μg/kg single i.v.,1
